{"source": "ChEMBL document CHEMBL3792365", "about": "“Dioxol and dihydrodioxin analogs of 2- and 3-phenylacetonitriles as potent anti-cancer agents with nanomolar activity against a variety of human cancer cells” (2016)", "format_in_all_cases": "functional", "key": {"[1]": {"experiment": "Growth inhibition of human SNB75 cells at 10 uM after 48 hrs by sulforhodamine B assay", "settings": "SNB-75, 48 h, values are per cent of control"}, "U-251": {"test_system": "U-251", "experiment": "Growth inhibition of human U251 cells at 10 uM after 48 hrs by sulforhodamine B assay", "settings": "U-251, 48 h, values are per cent of control"}, "[2]": {"experiment": "Growth inhibition of human LOXIMVI cells at 10 uM after 48 hrs by sulforhodamine B assay", "settings": "LOX IMVI, values are per cent of control"}, "M14": {"test_system": "M14", "experiment": "Growth inhibition of human M14 cells at 10 uM after 48 hrs by sulforhodamine B assay", "settings": "M14, 48 h, values are per cent of control"}, "MDA-MB-435": {"test_system": "MDA-MB-435", "experiment": "Growth inhibition of human MDA-MB-435 cells at 10 uM after 48 hrs by sulforhodamine B assay", "settings": "MDA-MB-435, 48 h, values are per cent of control"}, "SK-MEL-2": {"test_system": "SK-MEL-2", "experiment": "Growth inhibition of human SK-MEL-2 cells at 10 uM after 48 hrs by sulforhodamine B assay", "settings": "SK-MEL-2, 48 h, values are per cent of control"}, "SK-MEL-28": {"test_system": "SK-MEL-28", "experiment": "Growth inhibition of human SK-MEL-28 cells at 10 uM after 48 hrs by sulforhodamine B assay", "settings": "SK-MEL-28, 48 h, values are per cent of control"}, "SK-MEL-5": {"test_system": "SK-MEL-5", "experiment": "Growth inhibition of human SK-MEL-5 cells at 10 uM after 48 hrs by sulforhodamine B assay", "settings": "SK-MEL-5, 48 h, values are per cent of control"}, "[3]": {"experiment": "Growth inhibition of human OVCAR4 cells at 10 uM after 48 hrs by sulforhodamine B assay", "settings": "OVCAR-4, 48 h, values are per cent of control"}, "[4]": {"experiment": "Growth inhibition of human OVCAR5 cells at 10 uM after 48 hrs by sulforhodamine B assay", "settings": "OVCAR-5, 48 h, values are per cent of control"}, "[5]": {"experiment": "Growth inhibition of human OVCAR8 cells at 10 uM after 48 hrs by sulforhodamine B assay", "settings": "OVCAR-8, 48 h, values are per cent of control"}, "[6]": {"experiment": "Growth inhibition of human NCI-ADR-RES cells at 10 uM after 48 hrs by sulforhodamine B assay", "settings": "values are per cent of control"}, "[7]": {"experiment": "Growth inhibition of human SKOV3 cells at 10 uM after 48 hrs by sulforhodamine B assay", "settings": "SK-OV-3, 48 h, values are per cent of control"}, "786-0": {"test_system": "786-0", "experiment": "Growth inhibition of human 786-0 cells at 10 uM after 48 hrs by sulforhodamine B assay", "settings": "786-0, 48 h, values are per cent of control"}, "A498": {"test_system": "A498", "experiment": "Growth inhibition of human A498 cells at 10 uM after 48 hrs by sulforhodamine B assay", "settings": "A498, 48 h, values are per cent of control"}, "ACHN": {"test_system": "ACHN", "experiment": "Growth inhibition of human ACHN cells at 10 uM after 48 hrs by sulforhodamine B assay", "settings": "values are per cent of control"}, "[8]": {"experiment": "Growth inhibition of human Caki1 cells at 10 uM after 48 hrs by sulforhodamine B assay", "settings": "CAKI-1, 48 h, values are per cent of control"}, "[9]": {"experiment": "Growth inhibition of human RXF393 cells at 10 uM after 48 hrs by sulforhodamine B assay", "settings": "RXF 393, 48 h, values are per cent of control"}, "SN12C": {"test_system": "SN12C", "experiment": "Growth inhibition of human SN12C cells at 10 uM after 48 hrs by sulforhodamine B assay", "settings": "values are per cent of control"}, "[10]": {"experiment": "Growth inhibition of human TK10 cells at 10 uM after 48 hrs by sulforhodamine B assay", "settings": "TK-10, 48 h, values are per cent of control"}, "[11]": {"experiment": "Growth inhibition of human UO31 cells at 10 uM after 48 hrs by sulforhodamine B assay", "settings": "UO-31, 48 h, values are per cent of control"}, "[12]": {"experiment": "Growth inhibition of human DU145 cells at 10 uM after 48 hrs by sulforhodamine B assay", "settings": "DU-145, 48 h, values are per cent of control"}, "MDA-MB-231": {"test_system": "MDA-MB-231", "experiment": "Growth inhibition of human MDA-MB-231 cells at 10 uM after 48 hrs by sulforhodamine B assay", "settings": "MDA-MB-231, 48 h, values are per cent of control"}, "[13]": {"experiment": "Growth inhibition of human BT549 cells at 10 uM after 48 hrs by sulforhodamine B assay", "settings": "BT-549, 48 h, values are per cent of control"}, "MDA-MB-468": {"test_system": "MDA-MB-468", "experiment": "Growth inhibition of human MDA-MB-468 cells at 10 uM after 48 hrs by sulforhodamine B assay", "settings": "MDA-MB-468, 48 h, values are per cent of control"}, "K562": {"test_system": "K562", "experiment": "Growth inhibition of human K562 cells at 10 uM after 48 hrs by sulforhodamine B assay", "settings": "K562, 48 h, values are per cent of control"}, "A549": {"test_system": "A549", "experiment": "Growth inhibition of human A549/ATCC cells at 10 uM after 48 hrs by sulforhodamine B assay", "settings": "A549, 48 h, values are per cent of control"}, "[14]": {"experiment": "Growth inhibition of human HOP62 cells at 10 uM after 48 hrs by sulforhodamine B assay", "settings": "HOP-62, 48 h, values are per cent of control"}, "NCI-H226": {"test_system": "NCI-H226", "experiment": "Growth inhibition of human NCI-H226 cells at 10 uM after 48 hrs by sulforhodamine B assay", "settings": "NCI-H226, 48 h, values are per cent of control"}, "NCI-H322M": {"test_system": "NCI-H322M", "experiment": "Growth inhibition of human NCI-H322M cells at 10 uM after 48 hrs by sulforhodamine B assay", "settings": "values are per cent of control"}, "NCI-H460": {"test_system": "NCI-H460", "experiment": "Growth inhibition of human NCI-H460 cells at 10 uM after 48 hrs by sulforhodamine B assay", "settings": "NCI-H460, 48 h, values are per cent of control"}, "[15]": {"experiment": "Growth inhibition of human COLO205 cells at 10 uM after 48 hrs by sulforhodamine B assay", "settings": "COLO 205, 48 h, values are per cent of control"}, "[16]": {"experiment": "Growth inhibition of human HCT116 cells at 10 uM after 48 hrs by sulforhodamine B assay", "settings": "HCT-116, 48 h, values are per cent of control"}, "HT-29": {"test_system": "HT-29", "experiment": "Growth inhibition of human HT-29 cells at 10 uM after 48 hrs by sulforhodamine B assay", "settings": "HT-29, 48 h, values are per cent of control"}, "KM12": {"test_system": "KM12", "experiment": "Growth inhibition of human KM12 cells at 10 uM after 48 hrs by sulforhodamine B assay", "settings": "KM12, 48 h, values are per cent of control"}, "[17]": {"experiment": "Growth inhibition of human SW620 cells at 10 uM after 48 hrs by sulforhodamine B assay", "settings": "SW-620, 48 h, values are per cent of control"}, "[18]": {"experiment": "Growth inhibition of human SF268 cells at 10 uM after 48 hrs by sulforhodamine B assay", "settings": "SF-268, 48 h, values are per cent of control"}, "[19]": {"experiment": "Growth inhibition of human SF295 cells at 10 uM after 48 hrs by sulforhodamine B assay", "settings": "SF-295, 48 h, values are per cent of control"}, "[20]": {"experiment": "Growth inhibition of human SF539 cells at 10 uM after 48 hrs by sulforhodamine B assay", "settings": "SF-539, 48 h, values are per cent of control"}, "[21]": {"experiment": "Growth inhibition of human SNB19 cells at 10 uM after 48 hrs by sulforhodamine B assay", "settings": "SNB-19, 48 h, values are per cent of control"}}}
{"smiles": "COc1ccc(/C=C(\\C#N)c2ccc3c(c2)OCO3)c2ccccc12", "values": [{"measurement": "growth, % of control at 10 µM", "setting": "[1]", "value": -3.1, "unit": "%"}, {"measurement": "growth, % of control at 10 µM", "setting": "U-251", "value": 18.7, "unit": "%"}, {"measurement": "growth, % of control at 10 µM", "setting": "[2]", "value": 35.2, "unit": "%"}, {"measurement": "growth, % of control at 10 µM", "setting": "M14", "value": 16.2, "unit": "%"}, {"measurement": "growth, % of control at 10 µM", "setting": "MDA-MB-435", "value": -26.3, "unit": "%"}, {"measurement": "growth, % of control at 10 µM", "setting": "SK-MEL-2", "value": 13.1, "unit": "%"}, {"measurement": "growth, % of control at 10 µM", "setting": "SK-MEL-28", "value": 43.6, "unit": "%"}, {"measurement": "growth, % of control at 10 µM", "setting": "SK-MEL-5", "value": 19.1, "unit": "%"}, {"measurement": "growth, % of control at 10 µM", "setting": "[3]", "value": 49.7, "unit": "%"}, {"measurement": "growth, % of control at 10 µM", "setting": "[4]", "value": 55.7, "unit": "%"}, {"measurement": "growth, % of control at 10 µM", "setting": "[5]", "value": 29, "unit": "%"}, {"measurement": "growth, % of control at 10 µM", "setting": "[6]", "value": 10.5, "unit": "%"}, {"measurement": "growth, % of control at 10 µM", "setting": "[7]", "value": 26.9, "unit": "%"}, {"measurement": "growth, % of control at 10 µM", "setting": "786-0", "value": 40.2, "unit": "%"}, {"measurement": "growth, % of control at 10 µM", "setting": "A498", "value": -8.4, "unit": "%"}, {"measurement": "growth, % of control at 10 µM", "setting": "ACHN", "value": 44.7, "unit": "%"}, {"measurement": "growth, % of control at 10 µM", "setting": "[8]", "value": 30.8, "unit": "%"}, {"measurement": "growth, % of control at 10 µM", "setting": "[9]", "value": -17.7, "unit": "%"}, {"measurement": "growth, % of control at 10 µM", "setting": "SN12C", "value": 38.6, "unit": "%"}, {"measurement": "growth, % of control at 10 µM", "setting": "[10]", "value": 43.8, "unit": "%"}, {"measurement": "growth, % of control at 10 µM", "setting": "[11]", "value": 42.1, "unit": "%"}, {"measurement": "growth, % of control at 10 µM", "setting": "[12]", "value": 14.9, "unit": "%"}, {"measurement": "growth, % of control at 10 µM", "setting": "MDA-MB-231", "value": 39.4, "unit": "%"}, {"measurement": "growth, % of control at 10 µM", "setting": "[13]", "value": 26.6, "unit": "%"}, {"measurement": "growth, % of control at 10 µM", "setting": "MDA-MB-468", "value": -14.5, "unit": "%"}, {"measurement": "growth, % of control at 10 µM", "setting": "K562", "value": 19.1, "unit": "%"}, {"measurement": "growth, % of control at 10 µM", "setting": "A549", "value": 31.7, "unit": "%"}, {"measurement": "growth, % of control at 10 µM", "setting": "[14]", "value": 44.4, "unit": "%"}, {"measurement": "growth, % of control at 10 µM", "setting": "NCI-H226", "value": 38.5, "unit": "%"}, {"measurement": "growth, % of control at 10 µM", "setting": "NCI-H322M", "value": 34.3, "unit": "%"}, {"measurement": "growth, % of control at 10 µM", "setting": "NCI-H460", "value": 13.2, "unit": "%"}, {"measurement": "growth, % of control at 10 µM", "setting": "[15]", "value": 7.6, "unit": "%"}, {"measurement": "growth, % of control at 10 µM", "setting": "[16]", "value": 21.1, "unit": "%"}, {"measurement": "growth, % of control at 10 µM", "setting": "HT-29", "value": 10, "unit": "%"}, {"measurement": "growth, % of control at 10 µM", "setting": "KM12", "value": 21, "unit": "%"}, {"measurement": "growth, % of control at 10 µM", "setting": "[17]", "value": 10.6, "unit": "%"}, {"measurement": "growth, % of control at 10 µM", "setting": "[18]", "value": 34, "unit": "%"}, {"measurement": "growth, % of control at 10 µM", "setting": "[19]", "value": 5.6, "unit": "%"}, {"measurement": "growth, % of control at 10 µM", "setting": "[20]", "value": -42.9, "unit": "%"}, {"measurement": "growth, % of control at 10 µM", "setting": "[21]", "value": 36.1, "unit": "%"}]}
